Read-outs that look alike come from different tables or passages of the source.
Columns and labels:
full-length FLAG-KDM5A = biological target: T1, full-length FLAG-KDM5A (Homo sapiens, UniProt P29375); assay: AlphaScreen KDM5A demethylation assay (bio-H3K4me3 peptide); assay type: biochemical; conditions: for hit in KDM5A inhibitor screen: compounds at 20 μM, hit threshold ~30% inhibition
T1 construct: Sf21 insect cells were infected with baculovirus to express full-length FLAG-KDM5A; made in house; host or cells: Sf21 insect cells (baculovirus)
Description: (§1) Histone demethylase assays were performed using previously described methods (Sayegh et al., 2013, J. Biol. Chem. 9408-9417), with the exception of all enzyme reactions containing 125 μM α-KG. Enzymes were used at the following approximate concentrations in validation experiments, chosen based on their activity in AlphaScreen assays: 19 nM FLAG-KDM5A, 15 nM FLAG-KDM5B, 6 nM FLAG-KDM5C, 29 nM His-FLAG-KDM6A, and 16 nM FLAG-KDM6B. 24 nM FLAG-KDM5A was used for Km determination experiments. Reactions were carried out for 1 hour, or were stopped by addition of 30 mM EDTA every 5 minutes for determining enzyme kinetics. Km values were calculated using the Michaelis-Menten non-linear regression analysis on GraphPad Prism 6.0 software. The concentration of DMSO in demethylation reactions was 0.05%. For reactions with catalase, catalase (Sigma C30) or an equal volume of dilution buffer was added to the peptide-containing buffer before addition of the demethylase. The final concentration of catalase in the reactions was 0.01 mg/ml.
(§2) The AlphaScreen general IgG (protein A) detection kit from PerkinElmer Life Sciences was used as described previously (Sayegh et al., 2013, J. Biol. Chem. 9408-9417). The luminescence emission was recorded at 570 nm using the AlphaScreen optic module on a Pherastar (BMG Labtech) or Envision (PerkinElmer Life Sciences) microplate reader.
8,861 compounds from the ChemBridge MW-Set, ChemBridge DIVERSet, MicroSource Gen-Plus, MicroSource Pure Natural Products, NIH Clinical Collection, and Enzo Epigenetics libraries were screened for inhibition of FLAG-KDM5A demethylase activity. Compounds were dissolved in DMSO and added at 20 μM to 384-well white plates (Corning 3574) containing 64 nM bio-H3K4me3 peptide in demethylase buffer prior to addition of 13 nM FLAG-KDM5A. Hits were selected at a threshold of three standard deviations (˜30% inhibition). A counter-screen was performed with the hits to eliminate any non-specific compounds. For this, 20 μM compounds were added to 64 nM bio-H3K4me2 peptide in demethylase buffer with no enzyme. Any hits that interfered with the positive signal detection were eliminated. Dose-response curves were performed on selected hits using 0.1-11 μM of compound. Further validation of top hits was performed using 5 μM of each compound or a dose-response curve using 0.05-50 μM of the compound.
Fresh compounds were ordered to confirm identity. IC50 curves were generated for YUKA1 and YUKA2 using 0.05-50 μM compound in 1 hour reactions. IC50 values were calculated by log transformation and non-linear regression log (inhibitor) versus response (three parameters) using Graphpad Prism 6.0 software. Percent activity of KDM5A was calculated for each data point by subtracting the background (average H3K4me3 signal) and dividing by the average signal for the DMSO controls. α-KG competition tests were performed using 150 nM H3K4me3 peptide and 50 μM Fe(II).
AlphaScreen technology (Perkin Elmer) was utilized to perform a screen for small molecule inhibitors of KDM5A. The assay was comprised of two steps, a demethylation reaction followed by detection of the product. A biotinylated H3K4me3 peptide was used as substrate in the demethylation reaction with KDM5A in the presence or absence of small molecule inhibitors. The presence of peptide product (H3K4me1/2) was detected using a product-specific antibody and beads. For this, acceptor beads coated in protein A bound to the antibody, which recognized the peptide product. Donor beads coated in streptavidin bound biotin on the peptide substrate. […]

[1] = test system: H3K4 methylation in HeLa cells; assay: Western blot of global H3K4 methylation, HeLa; assay type: cell-based, human; conditions: HeLa and MCF7 cell lines, western blot
Description: Sf21 insect cells were cultured at 27° C. in Grace's medium (Gibco) with 10% fetal bovine serum (FBS) and 1% penicillin/streptomycin. HeLa cells were cultured in DMEM (Gibco) with 10% FBS and 1% penicillin/streptomycin. BT474, MCF7, MDA-MB-231, PC9 and ZR-75-1 cells were cultured in RPMI 1640 (Gibco) with 10% FBS and 1% penicillin/streptomycin. MCF10A cells were cultured as using previously described methods (Sayegh et al., 2013, J. Biol. Chem. 9408-9417). All human cells were cultured at 37° C. and 5% carbon dioxide. HeLa and MCF7 cell lines were authenticated using short tandem repeat profiling performed at the DNA Analysis Facility on Science Hill at Yale University. All other human cell lines used were within 10 passages after being obtained from the American Type Culture Collection.
Cells were lysed using previously described methods (Lin et al., 2011, Proc. Natl. Acad. Sci. U.S.A. 108:13379-13386). Histones were separated by centrifugation, resuspended in Laemmeli buffer, and sonicated. Protein concentration of cell lysates was measured by Bradford assay. Samples in Laemmeli buffer were boiled 10 minutes at 95° C. and loaded onto 7% (whole cell lysates) or 18% (histones) SDS-PAGE gels. Membranes were blocked in 4% non-fat milk in Tris-buffered saline with 0.05% Tween (TBS-T) and incubated with primary antibodies in the same buffer or 5% bovine serum albumin in TBS-T overnight at 4° C. Membranes were incubated with secondary anti-rabbit or anti-mouse antibodies for one hour at room temperature. Blots were visualized by Thermo Scientific Pierce ECL Western Blotting Substrate (32106) or EMD Millipore Immobilon Western Chemiluminescent HRP Substrate (WBKLS0100) on film. Signal was quantified using ImageJ software.

KDM5C = biological target: T2, KDM5C (Homo sapiens, UniProt P41229); assay: AlphaScreen KDM5C demethylation assay; assay type: biochemical
T2 construct: FLAG; made in house
Description: as §1, §2

[2] = inhibitors found by high throughput screening, read-out: KDM5A IC50

T1 sequence (P29375 whole entry): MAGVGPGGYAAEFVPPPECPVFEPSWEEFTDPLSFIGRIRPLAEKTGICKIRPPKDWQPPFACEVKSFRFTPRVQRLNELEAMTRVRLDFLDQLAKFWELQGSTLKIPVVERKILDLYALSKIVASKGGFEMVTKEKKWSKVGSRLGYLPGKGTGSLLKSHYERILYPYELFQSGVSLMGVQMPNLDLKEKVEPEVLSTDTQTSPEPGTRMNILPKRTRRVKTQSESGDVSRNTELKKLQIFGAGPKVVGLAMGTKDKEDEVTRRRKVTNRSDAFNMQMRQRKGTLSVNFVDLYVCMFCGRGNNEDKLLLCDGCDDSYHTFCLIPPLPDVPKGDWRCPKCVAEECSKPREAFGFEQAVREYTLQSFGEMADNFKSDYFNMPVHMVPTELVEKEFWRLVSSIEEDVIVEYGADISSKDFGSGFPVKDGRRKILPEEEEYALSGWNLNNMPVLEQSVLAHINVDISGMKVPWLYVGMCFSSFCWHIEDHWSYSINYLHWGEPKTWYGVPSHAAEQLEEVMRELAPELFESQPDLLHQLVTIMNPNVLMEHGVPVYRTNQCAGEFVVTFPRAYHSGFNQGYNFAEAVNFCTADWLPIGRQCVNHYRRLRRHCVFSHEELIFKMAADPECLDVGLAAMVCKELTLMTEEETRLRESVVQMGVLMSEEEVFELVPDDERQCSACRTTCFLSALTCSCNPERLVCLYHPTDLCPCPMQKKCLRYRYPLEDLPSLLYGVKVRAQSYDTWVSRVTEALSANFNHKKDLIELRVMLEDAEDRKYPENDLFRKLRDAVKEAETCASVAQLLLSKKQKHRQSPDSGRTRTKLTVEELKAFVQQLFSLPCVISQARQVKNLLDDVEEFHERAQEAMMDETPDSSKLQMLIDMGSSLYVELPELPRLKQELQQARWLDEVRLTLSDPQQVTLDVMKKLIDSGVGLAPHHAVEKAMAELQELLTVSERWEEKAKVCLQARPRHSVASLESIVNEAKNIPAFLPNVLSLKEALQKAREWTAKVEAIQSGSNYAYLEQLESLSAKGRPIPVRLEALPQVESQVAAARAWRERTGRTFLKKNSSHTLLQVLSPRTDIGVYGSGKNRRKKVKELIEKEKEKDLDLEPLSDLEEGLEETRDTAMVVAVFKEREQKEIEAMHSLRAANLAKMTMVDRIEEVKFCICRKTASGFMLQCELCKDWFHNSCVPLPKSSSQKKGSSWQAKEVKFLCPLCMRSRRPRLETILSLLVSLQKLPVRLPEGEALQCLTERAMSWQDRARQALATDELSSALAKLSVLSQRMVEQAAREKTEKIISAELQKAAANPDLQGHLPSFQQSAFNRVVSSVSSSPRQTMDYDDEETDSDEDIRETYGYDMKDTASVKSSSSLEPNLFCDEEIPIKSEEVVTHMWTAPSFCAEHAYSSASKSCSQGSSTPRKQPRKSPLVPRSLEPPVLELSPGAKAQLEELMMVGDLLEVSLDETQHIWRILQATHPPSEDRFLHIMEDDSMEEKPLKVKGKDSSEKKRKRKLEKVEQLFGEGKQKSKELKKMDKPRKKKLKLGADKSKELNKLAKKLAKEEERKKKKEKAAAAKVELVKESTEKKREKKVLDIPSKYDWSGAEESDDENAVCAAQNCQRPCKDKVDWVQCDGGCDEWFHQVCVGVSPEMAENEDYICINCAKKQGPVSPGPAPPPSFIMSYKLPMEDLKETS
T2 sequence (P41229 whole entry): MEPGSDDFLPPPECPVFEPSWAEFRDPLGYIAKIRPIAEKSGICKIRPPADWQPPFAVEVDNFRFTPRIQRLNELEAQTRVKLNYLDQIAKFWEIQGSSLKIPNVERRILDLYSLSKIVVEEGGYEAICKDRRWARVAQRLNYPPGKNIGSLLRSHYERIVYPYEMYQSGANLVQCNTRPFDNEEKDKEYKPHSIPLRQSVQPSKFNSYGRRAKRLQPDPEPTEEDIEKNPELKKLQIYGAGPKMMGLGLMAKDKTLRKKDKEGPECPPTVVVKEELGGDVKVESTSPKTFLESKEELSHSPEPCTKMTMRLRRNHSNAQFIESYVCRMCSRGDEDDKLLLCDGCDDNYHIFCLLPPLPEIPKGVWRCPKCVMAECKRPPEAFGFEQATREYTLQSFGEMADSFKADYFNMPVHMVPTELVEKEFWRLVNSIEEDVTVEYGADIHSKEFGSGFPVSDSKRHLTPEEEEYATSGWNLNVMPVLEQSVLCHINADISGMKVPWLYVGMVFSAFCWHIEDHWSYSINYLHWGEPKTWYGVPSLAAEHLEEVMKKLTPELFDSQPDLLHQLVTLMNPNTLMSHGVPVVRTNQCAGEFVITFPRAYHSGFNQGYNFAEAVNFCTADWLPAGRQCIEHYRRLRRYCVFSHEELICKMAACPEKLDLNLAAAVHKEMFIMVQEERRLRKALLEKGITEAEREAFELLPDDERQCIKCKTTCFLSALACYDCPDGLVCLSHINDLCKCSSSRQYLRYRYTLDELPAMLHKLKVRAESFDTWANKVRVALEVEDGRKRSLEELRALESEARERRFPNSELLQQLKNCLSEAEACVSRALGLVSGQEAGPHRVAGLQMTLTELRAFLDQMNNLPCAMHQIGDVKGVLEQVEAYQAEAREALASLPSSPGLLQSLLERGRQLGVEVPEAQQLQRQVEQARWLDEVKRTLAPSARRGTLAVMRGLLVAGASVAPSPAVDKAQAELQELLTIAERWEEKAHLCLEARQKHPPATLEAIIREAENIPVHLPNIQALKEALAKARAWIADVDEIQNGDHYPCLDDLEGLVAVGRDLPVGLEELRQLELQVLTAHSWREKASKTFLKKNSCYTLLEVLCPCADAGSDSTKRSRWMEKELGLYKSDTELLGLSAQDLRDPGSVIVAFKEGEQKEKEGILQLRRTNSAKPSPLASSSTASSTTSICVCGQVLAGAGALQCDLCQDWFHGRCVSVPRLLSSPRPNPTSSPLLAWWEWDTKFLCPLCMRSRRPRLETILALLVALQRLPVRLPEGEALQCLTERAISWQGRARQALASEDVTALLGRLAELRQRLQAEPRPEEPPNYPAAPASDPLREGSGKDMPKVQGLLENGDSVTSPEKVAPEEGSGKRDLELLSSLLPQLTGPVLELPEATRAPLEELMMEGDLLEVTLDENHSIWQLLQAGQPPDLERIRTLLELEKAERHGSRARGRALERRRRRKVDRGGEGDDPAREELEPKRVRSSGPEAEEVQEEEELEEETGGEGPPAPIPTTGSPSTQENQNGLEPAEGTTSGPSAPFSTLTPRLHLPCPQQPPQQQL

Row | SMILES | hit in KDM5A inhibitor screen (full-length FLAG-KDM5A) | IC50 (full-length FLAG-KDM5A; [2]) [nM] | other results
1 | O=C(O)c1ccnc(C(=O)O)c1 [2,4-PDCA, 2,4-pyridinedicarboxylic acid, reference compound] | among the active hits in the screen |  | 
2 | Cc1ccc(-n2sc3ccccc3c2=O)cc1 [PBIT, 2-4(4-methylphenyl)-1,2-benzisothiazol-3(2H)-one, reference compound] | among the active hits in the screen |  | 
3 | O=C(O)/C=C/c1ccc(O)c(O)c1 [caffeic acid, reference compound] | among the active hits in the screen |  | 
4 | C[C@@](Cc1ccc(O)c(O)c1)(NN)C(=O)O [carbidopa, reference compound] | among the active hits in the screen |  | 
5 | N[C@@H](Cc1ccc(O)c(O)c1)C(=O)O [levodopa, reference compound] | among the active hits in the screen |  | 

Now from value to compound, other results behind:

Row | hit in KDM5A inhibitor screen (full-length FLAG-KDM5A) | IC50 (full-length FLAG-KDM5A; [2]) [nM] | SMILES | other results
6 |  | 57 | COc1cccc(Cc2nnc(S)n2-c2ccc(Cl)cc2)c1 [YU017175, 4-(4-chlorophenyl)-5-(3-methoxybenzyl)-4H-1,2,4-triazole-3-thiol] | 
7 |  | 1760 | COc1cccc(Cc2nnc(S)n2Cc2ccco2)c1 [YU017176, 4-(furan-2-ylmethyl)-5-(3-methoxybenzyl)-4H-1,2,4-triazole-3-thiol] | 
8 |  | 197 | C=CCn1c(S)nnc1-c1cccnc1 [YU125526, 4-allyl-5-(pyridin-3-yl)-4H-1,2,4-triazole-3-thiol] | 
9 |  | 159 | CCn1c(S)nnc1CNC(=O)c1cccc(C)c1 [YU126648, N-((4-ethyl-5-mercapto-4H-1,2,4-triazol-3-yl)methyl)-3-methylbenzamide] | 
10 |  | 79 | Cc1cccc(-n2c(C)nnc2S)c1 [YU128402, 5-methyl-4-(m-tolyl)-4H-1,2,4-triazole-3-thiol] | 
11 |  | 169 | CCCCSCCc1nnc(S)n1-c1ccccc1 [YU149596, 5-(2-(butylthio)ethyl)-4-phenyl-4H-1,2,4-triazole-3-thiol] | 
12 |  | 2660 | C=CCn1c(S)nnc1CNC(=O)c1cccc(C)c1 [YUKA2, N-[(4-allyl-5-mercapto-4H-1,2,4-triazol-3-yl)methyl]-3-methylbenzamide] | mode of KDM5A inhibition with respect to Fe(II) (full-length FLAG-KDM5A): uncompetitive with respect to Fe(II); KDM5A enzyme inhibition at low Fe(II) (full-length FLAG-KDM5A; 5 μM Fe(II)): too weak to generate robust IC50 curves; effect of catalase on inhibitory potency against KDM5A (full-length FLAG-KDM5A; 0.01 mg/ml catalase): did not affect the inhibitory potency; IC50 (full-length FLAG-KDM5A; 0.05-50 μM compound, 1 hour reactions, read-out: average in vitro IC50 against KDM5A): 1320 nM; change of KDM5A IC50 with α-KG concentration (full-length FLAG-KDM5A; 16-fold range of α-KG, 150 nM H3K4me3 peptide, 50 μM Fe(II)): did not change significantly; cell activity by global H3K4 methylation changes [1]: but not YUKA2, was cell-active; fold less active against KDM5C (vs KDM5A) (KDM5C): ~5 fold
